BindingDB's records for doi:10.1124/jpet.105.084830 (University of Tokyo, 2005)
pKi: −log10 of the molar value.

Columns and labels:
Bile salt export pump [1] = target: T1, Bile salt export pump (Rattus norvegicus, UniProt O70127)
T1 sequence (O70127 whole entry): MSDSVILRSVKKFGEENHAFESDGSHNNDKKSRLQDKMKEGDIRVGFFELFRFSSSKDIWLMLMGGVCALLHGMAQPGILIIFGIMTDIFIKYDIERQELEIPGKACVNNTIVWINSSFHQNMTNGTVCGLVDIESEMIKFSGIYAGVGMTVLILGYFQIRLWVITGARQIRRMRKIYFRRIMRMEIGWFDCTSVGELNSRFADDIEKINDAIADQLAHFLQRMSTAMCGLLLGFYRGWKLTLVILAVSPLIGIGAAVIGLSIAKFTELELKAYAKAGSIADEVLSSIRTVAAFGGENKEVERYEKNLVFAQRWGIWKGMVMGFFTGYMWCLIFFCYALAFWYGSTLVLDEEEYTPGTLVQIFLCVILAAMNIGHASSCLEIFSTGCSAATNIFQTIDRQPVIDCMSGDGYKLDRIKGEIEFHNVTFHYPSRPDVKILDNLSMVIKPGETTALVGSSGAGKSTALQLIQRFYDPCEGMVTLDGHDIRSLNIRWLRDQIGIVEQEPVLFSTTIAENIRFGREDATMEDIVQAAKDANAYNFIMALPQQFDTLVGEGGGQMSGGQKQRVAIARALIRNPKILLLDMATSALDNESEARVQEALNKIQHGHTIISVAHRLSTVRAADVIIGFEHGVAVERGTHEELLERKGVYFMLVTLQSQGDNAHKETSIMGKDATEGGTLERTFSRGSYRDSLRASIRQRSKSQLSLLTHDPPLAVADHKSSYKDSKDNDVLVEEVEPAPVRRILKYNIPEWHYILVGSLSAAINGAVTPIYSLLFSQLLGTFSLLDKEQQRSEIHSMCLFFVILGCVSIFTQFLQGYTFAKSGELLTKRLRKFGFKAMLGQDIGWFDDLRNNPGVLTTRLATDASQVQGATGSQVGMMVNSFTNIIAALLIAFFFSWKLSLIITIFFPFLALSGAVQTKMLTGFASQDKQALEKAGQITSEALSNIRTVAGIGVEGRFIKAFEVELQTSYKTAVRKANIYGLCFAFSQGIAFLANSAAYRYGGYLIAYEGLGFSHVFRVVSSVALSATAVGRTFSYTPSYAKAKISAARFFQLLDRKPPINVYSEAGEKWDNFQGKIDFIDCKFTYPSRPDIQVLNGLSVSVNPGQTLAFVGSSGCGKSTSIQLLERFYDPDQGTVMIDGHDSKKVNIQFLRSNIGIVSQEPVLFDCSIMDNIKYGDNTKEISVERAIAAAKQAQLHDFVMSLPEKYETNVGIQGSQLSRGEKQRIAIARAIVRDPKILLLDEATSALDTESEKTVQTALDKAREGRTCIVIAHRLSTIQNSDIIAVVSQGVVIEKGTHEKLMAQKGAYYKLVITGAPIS

Bile salt export pump [2] = target: Bile salt export pump (Homo sapiens, UniProt O95342)
Chain of Bile salt export pump (Homo sapiens, UniProt O95342) (O95342 whole entry): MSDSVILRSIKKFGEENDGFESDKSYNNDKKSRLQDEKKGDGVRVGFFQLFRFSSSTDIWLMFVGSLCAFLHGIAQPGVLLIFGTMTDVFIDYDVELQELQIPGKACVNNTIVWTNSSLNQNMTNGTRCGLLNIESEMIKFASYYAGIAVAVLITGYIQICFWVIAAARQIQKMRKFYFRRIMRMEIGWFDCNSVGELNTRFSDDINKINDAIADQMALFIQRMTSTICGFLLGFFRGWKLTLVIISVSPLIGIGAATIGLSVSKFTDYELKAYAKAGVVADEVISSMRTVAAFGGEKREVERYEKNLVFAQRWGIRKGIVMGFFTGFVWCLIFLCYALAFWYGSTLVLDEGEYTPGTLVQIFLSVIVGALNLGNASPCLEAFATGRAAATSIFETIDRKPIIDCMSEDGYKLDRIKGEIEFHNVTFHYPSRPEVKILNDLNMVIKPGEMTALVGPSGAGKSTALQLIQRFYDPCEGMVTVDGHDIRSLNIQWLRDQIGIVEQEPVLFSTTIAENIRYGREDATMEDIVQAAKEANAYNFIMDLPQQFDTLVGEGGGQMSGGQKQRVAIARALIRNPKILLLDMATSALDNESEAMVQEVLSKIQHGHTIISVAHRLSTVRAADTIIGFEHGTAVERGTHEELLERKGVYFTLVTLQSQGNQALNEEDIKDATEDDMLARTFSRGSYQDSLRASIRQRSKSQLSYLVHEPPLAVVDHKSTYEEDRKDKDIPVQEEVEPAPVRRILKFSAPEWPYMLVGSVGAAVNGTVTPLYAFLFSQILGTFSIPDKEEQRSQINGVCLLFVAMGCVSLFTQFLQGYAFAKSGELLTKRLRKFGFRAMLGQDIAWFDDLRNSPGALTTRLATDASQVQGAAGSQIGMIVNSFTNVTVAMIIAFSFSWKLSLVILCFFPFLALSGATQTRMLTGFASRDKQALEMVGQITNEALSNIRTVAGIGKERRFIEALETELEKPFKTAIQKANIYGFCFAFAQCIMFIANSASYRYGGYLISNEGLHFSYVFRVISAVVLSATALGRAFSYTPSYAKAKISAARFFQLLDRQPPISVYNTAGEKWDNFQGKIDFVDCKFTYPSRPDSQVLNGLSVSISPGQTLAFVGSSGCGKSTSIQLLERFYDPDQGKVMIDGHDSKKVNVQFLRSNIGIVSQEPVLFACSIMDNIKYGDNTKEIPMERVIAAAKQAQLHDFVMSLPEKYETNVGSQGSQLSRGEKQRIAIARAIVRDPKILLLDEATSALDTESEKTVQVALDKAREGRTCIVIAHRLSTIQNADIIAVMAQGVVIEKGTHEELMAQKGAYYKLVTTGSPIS

SMILES	pKi (Bile salt export pump [1])	pKi (Bile salt export pump [2])
CC(C)c1nc(N(C)S(C)(=O)=O)nc(-c2ccc(F)cc2)c1/C=C/[C@@H](O)C[C@@H](O)CC(=O)O	< 5.00	< 5.00
CC(C)c1c(C(=O)Nc2ccccc2)c(-c2ccccc2)c(-c2ccc(F)cc2)n1CC[C@@H]1C[C@@H](O)CC(=O)O1	< 5.00	< 5.00
CCC(C)(C)C(=O)O[C@H]1C[C@@H](C)C=C2C=C[C@H](C)[C@H](CC[C@@H]3C[C@@H](O)CC(=O)O3)[C@H]21 [2,2-dimethylbutyric acid, 8-ester with (4R,6R)-6-(2-((1S,2S,6R,8S,8aR)-1,2,6,7,8,8a-hexahydro-8-hydroxy-2,6-dimethyl-1-naphthyl)ethyl)tetrahydro-4-hydroxy-2H-pyran-2-one]	< 5.00	–
CC[C@H](C)C(=O)O[C@H]1C[C@H](O)C=C2C=C[C@H](C)[C@H](CC[C@@H](O)C[C@@H](O)CC(=O)O)[C@H]21 [(3R,5R)-7-[(1S,2S,6S,8S,8aR)-6-hydroxy-2-methyl-8-{[(2S)-2-methylbutanoyl]oxy}-1,2,6,7,8,8a-hexahydronaphthalen-1-yl]-3,5-dihydroxyheptanoic acid]	< 5.00	< 5.00
COCc1c(C(C)C)nc(C(C)C)c(/C=C/[C@@H](O)C[C@@H](O)CC(=O)O)c1-c1ccc(F)cc1 [(3R,5S,6E)-7-[4-(4-fluorophenyl)-5-(methoxymethyl)-2,6-bis(propan-2-yl)pyridin-3-yl]-3,5-dihydroxyhept-6-enoic acid]	< 5.00	–
CC(C)n1c(/C=C/[C@@H](O)C[C@@H](O)CC(=O)O)c(-c2ccc(F)cc2)c2ccccc21 [CAS_93957-54-1]	< 5.00	–

The remaining lines, values ahead:

pKi (Bile salt export pump [1])	pKi (Bile salt export pump [2])	SMILES
< 5.00	< 5.00	O=C(O)C[C@H](O)C[C@H](O)/C=C/c1c(C2CC2)nc2ccccc2c1-c1ccc(F)cc1 [CAS_147511-69-1]
5.12	–	CC(C)c1c(C(=O)Nc2ccccc2)c(-c2ccccc2)c(-c2ccc(F)cc2)n1CC[C@@H](O)C[C@@H](O)CC(=O)O [CI 981]
< 5.00	< 5.00	CCC(C)(C)C(=O)O[C@H]1C[C@@H](C)C=C2C=C[C@H](C)[C@H](CC[C@@H](O)C[C@@H](O)CC(=O)O)[C@H]21 [Simvastatin acid]
